Read-outs that look alike come from different tables or passages of the source.
Columns and labels:
[1] = system: 1b_Huh-Luc/Neo-ET cell line (bicistronic genotype 1b replicon in Huh 7 cells); test: HCV 1b replicon assay, luciferase readout; format: cell-based, HCV genotype 1b; conditions: Hepatitis C virus
Summary of the method: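 Huh 7 cells persistently carrying a bicistronic genotype 1b luciferase replicon, treated with compound in triplicate the day after plating and incubated 72 h. Luciferase activity measured by Bright-Glo and expressed as percent of untreated control; EC50 from four-parameter fit, repeated several times.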

HCV 1a = HCV 1a replicon assay; format: cell-based; conditions: Hepatitis C virus; class symbol; cell marked (HCV genotype 1a replicon); read-out: Inhibition of HCV genotype 1a replicon
Description: Compounds of the invention can inhibit multiple genotypes of HCV selected but not limited to 1a, 1h, 2a, 3a, and 4a. The EC50s are measured in the corresponding replicon assays that are similar to HCV 1b replicon assay as described above.
(§1) The biological activity against HCV 1b, 1a, or 2a is indicated as being *, **, ***, or ****, which corresponds to EC50 ranges of EC50>1000 nM, 100 nM<EC50≦1000 nM, 10 nM<EC50≦100 nM, or EC50≦10 nM, respectively. The biological activity against HCV NS5B C316Y or S365A mutant is indicated as being […], which corresponds to EC50 ranges of EC50>1000 nM, 200 nM<EC50≦1000 nM, […], respectively.

HCV NS5B C316Y mutant = biological target: T1, HCV NS5B C316Y mutant (Hepatitis C virus genotype 1b, UniProt Q9WMX2, C2735Y); test: Activity against HCV NS5B C316Y mutant; format: cell-based; conditions: for Inhibition of HCV N55B C316Y mutant: class symbol
T1 construct: HCV NS5B C316Y or S365A mutant as indicated; expressed in transfected cells
Description: as §1

HCV NS5B S365A mutant = biological target: T2, HCV NS5B S365A mutant (Hepatitis C virus genotype 1b, UniProt Q9WMX2, S2784A); test: Activity against HCV NS5B S365A mutant; format: cell-based; conditions: for Inhibition of HCV NS5B S3865A mutant: class symbol
T2 construct: HCV NS5B C316Y or S365A mutant as indicated; expressed in transfected cells
Description: as §1

[2] = Huh-7, 1b_Huh-Luc/Neo-ET cell line, read-out: EC50, half-maximal inhibition of HCV 1b replication
[3] = Huh-7, class symbol, HCV genotype 1b replicon, read-out: Inhibition of HCV genotype 1b replicon

T1 sequence (Q9WMX2 2420-3010 C2735Y): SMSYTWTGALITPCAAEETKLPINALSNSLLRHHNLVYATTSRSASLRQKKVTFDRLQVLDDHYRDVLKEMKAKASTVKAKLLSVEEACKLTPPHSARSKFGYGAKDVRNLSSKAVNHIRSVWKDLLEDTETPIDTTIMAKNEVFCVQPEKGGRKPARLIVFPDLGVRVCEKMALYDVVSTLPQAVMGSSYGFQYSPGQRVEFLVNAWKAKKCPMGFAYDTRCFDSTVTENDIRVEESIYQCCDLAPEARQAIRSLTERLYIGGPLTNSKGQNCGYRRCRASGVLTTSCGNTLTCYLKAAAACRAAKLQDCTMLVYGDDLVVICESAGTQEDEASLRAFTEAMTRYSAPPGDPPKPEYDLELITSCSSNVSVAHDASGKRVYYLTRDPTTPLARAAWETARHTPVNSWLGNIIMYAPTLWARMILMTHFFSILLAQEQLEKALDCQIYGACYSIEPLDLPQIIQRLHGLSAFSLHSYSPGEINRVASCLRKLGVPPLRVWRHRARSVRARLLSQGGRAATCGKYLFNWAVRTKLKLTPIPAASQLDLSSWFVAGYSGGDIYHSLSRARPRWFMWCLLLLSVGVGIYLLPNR
T2 sequence (Q9WMX2 2420-3010 S2784A): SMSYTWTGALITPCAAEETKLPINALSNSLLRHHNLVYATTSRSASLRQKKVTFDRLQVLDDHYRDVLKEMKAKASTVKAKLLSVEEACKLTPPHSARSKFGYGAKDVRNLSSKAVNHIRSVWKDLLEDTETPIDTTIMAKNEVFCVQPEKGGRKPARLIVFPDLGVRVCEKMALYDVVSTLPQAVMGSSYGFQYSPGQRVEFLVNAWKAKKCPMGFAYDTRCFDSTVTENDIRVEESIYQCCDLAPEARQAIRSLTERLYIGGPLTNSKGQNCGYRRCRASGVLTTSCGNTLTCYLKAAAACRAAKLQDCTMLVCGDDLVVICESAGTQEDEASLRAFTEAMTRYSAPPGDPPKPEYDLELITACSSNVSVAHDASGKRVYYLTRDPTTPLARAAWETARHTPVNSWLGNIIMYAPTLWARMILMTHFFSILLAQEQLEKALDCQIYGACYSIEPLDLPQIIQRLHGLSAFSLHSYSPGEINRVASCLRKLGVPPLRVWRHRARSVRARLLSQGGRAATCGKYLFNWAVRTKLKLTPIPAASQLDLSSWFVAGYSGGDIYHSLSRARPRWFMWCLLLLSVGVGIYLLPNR

SMILES | EC50 [1, 2] [nM] | EC50 (HCV 1a) [nM] | Inhibition of HCV N55B C316Y mutant (HCV NS5B C316Y mutant) | Inhibition of HCV NS5B S3865A mutant (HCV NS5B S365A mutant) | EC50 [1, 3] [nM] | EC50 (HCV NS5B C316Y mutant) [nM] | EC50 (HCV NS5B S365A mutant) [nM]
CC1CCCN(S(C)(=O)=O)c2cc3oc(-c4ccc(F)cc4)c(-c4ncc[nH]4)c3cc21 (centres unmarked) [Compound B120] | ≤ 10 | < 10 | ††† | ††† |  |  | 
CNC(=O)c1c(-c2ccc(Oc3ccc(F)cc3)cc2)oc2cc3c(cc12)[C@H](C)n1nncc1CN3S(C)(=O)=O (single isomer, unassigned) [Compound B163] | ≤ 10 |  | ††† | ††† | < 10 |  | 
CNC(=O)c1c(-c2ccc(F)cc2)oc2cc3c(cc12)[C@H](C)OC1(CC1)CN3S(C)(=O)=O (single isomer, unassigned) [Compound B193] | 10 to 100 |  |  |  | 10 to 100 | 200 to 1000 | 200 to 1000
CNC(=O)c1c(-c2ccc(F)cc2)oc2cc3c(cc12)[C@H](C)O[C@H](CS(C)(=O)=O)CN3S(C)(=O)=O [Compound B214] |  |  | ††† | ††† | < 10 |  | 
CC1c2cc3c(-c4ncc[nH]4)c(-c4ccc(F)cc4)oc3cc2N(S(C)(=O)=O)CCN1C (centres unmarked) [Compound B171] | ≤ 10 |  | ††† |  | < 10 |  | 200 to 1000
CNC(=O)c1c(-c2ccc(F)cc2)oc2cc3c(cc12)CCCN3S(C)(=O)=O [Compound B1] |  |  | ††† (EC50 ≦ 200 nM) | ††† (EC50 ≦ 200 nM) | 100 to 1000 |  | 
CNC(=O)c1c(-c2ccc(F)cc2)oc2cc3c(cc12)[C@H](C)N(C)C(=O)CN3S(C)(=O)=O (single isomer, unassigned) [Compound B179] | 10 to 100 |  | ††† |  | 10 to 100 |  | 200 to 1000
